According to paper PMC12194779, “Synergistic Insecticidal Activity of Plant Volatile Compounds: Impact on Neurotransmission and Detoxification Enzymes in Sitophilus zeamais” (Insects, 2025):
Values after ≈ are worked out from the molar mass of the structure shown. Values joined by “and” are separate entries in the source; they are usually repeats but may differ in a detail not shown here. Identical values can stand only once. Like-named read-outs stand apart in the source and are kept apart here.

Experiments:
[1] = system: S. zeamais; conditions: cited from earlier work; for LC50 in vapor-phase assays without physical barriers: previous reports
[2] = system: Sitophilus zeamais; assay: whole plant or invertebrate; conditions: for EC90: read-out: Fumigant Toxicity LC90 (95% FL)
Experimental: (§1) The insects used in this study were Sitophilus zeamais Motschulsky (Coleoptera: Curculionidae), identified by the Instituto Colombiano Agropecuario (ICA) under report number R3823M0000425. […] The adult insects used in all the experiments were 6 to 10 days post-emergence.
The treated disks were affixed to the inner surface of the screw cap of 22 mL glass vials. […] All treatments were performed in two independent experiments, each with five replicates.
(§2) Mixtures predicted by the RSM were prepared based on mole fractions. […] Four replicates were performed for each treatment and control across two independent experimental runs.
Dose reduction indices (DRIs) were also calculated to estimate how much the dose of each compound in a synergistic combination could be reduced to achieve a 50% effect (Equation (4)). DRIs were interpreted as favorable when >1, neutral at 1, and unfavorable when <1. Values above the log DRI = 0 line indicate favorable dose reductions.(4) (IRD)i=CL50i(fax)i/(1−(fax)i)^1/mi/(D)i

[3] = system: Sitophilus zeamais; assay type: in vivo; conditions: for Contact Toxicity LD50i (LC-95%): mixtures and their components (Table 3); for Contact Toxicity LD90 (95% FL) / Contact Toxicity LD50 (95% FL): topical, 24 h after exposure
Experimental: as §1
Groups of 10 insects, previously placed in Petri dishes, were immobilized by exposure to low temperatures (0 °C). An initial dose of 50.0 µg per adult was applied topically to the dorsal thorax of each insect using aliquots of 0.20 µL from 0.25 mg/µL solutions in n-hexane. […] All treatments were performed in two independent experiments, each with four replicates. Insect mortality was assessed after 24 h, and mortality percentages were calculated using Abbott’s correction formula (Equation (1)).
as §2
Dose reduction indices (DRIs) were also calculated to estimate how much the dose of each compound in a synergistic combination could be reduced to achieve a 50% effect (Equation (4)). DRIs were interpreted as favorable when >1, neutral at 1, and unfavorable when <1.

[4] = system: catalase (CAT) activity in S. zeamais; assay: CAT activity assay (adapted Sinha) with S. zeamais protein extract; assay type: biochemical, Sitophilus zeamais; conditions: 120 mg/L
Experimental: (§3) Enzymatic assays were performed in the assay buffer, consisting of 0.1 M potassium phosphate buffer (pH 7.2). The compounds and mixtures evaluated in the in vitro assays were prepared in the same buffer supplemented with 0.5% (v/v) Triton X-100 (Sigma-Aldrich®, Saint Louis, MO, USA).
(§4) A modified version of the method described by Oviedo et al. was used. Adults of S. zeamais (8 g; ~3125 insects) were frozen in liquid nitrogen, homogenized in a 1:10 ratio with assay buffer, and centrifuged at 13,000× g for 60 min at 4 °C. The supernatant was filtered, and 20 mM benzamidine was added. The extracts were stored in 5 mL aliquots at −20 °C. Preliminary assays were performed to quantify the specific activity of AChE (0.02–1.00 U/mL), GST (0.1–0.8 U/mL), and CAT (0.1–25 U/mL), and to optimize assay conditions (enzyme dilution: 1/8 to 1% v/v; substrate concentrations: 2 × km or within assay linearity). Each experiment was performed independently three times, with three technical replicates per experiment.
Sinha’s method was adapted. In Eppendorf tubes, 100 µL of protein extract (24.77 U/mL) was mixed with 100 µL of the compound or mixture (120 mg/L) and incubated at 37 °C for 15 min. Then, 200 µL of H2O2 was added and shaken for 2.5 min. The reaction was stopped by adding 600 µL of K2Cr2O7, followed by incubation at 100 °C for 10 min. A 200 µL aliquot was transferred to a 96-well plate, and absorbance was recorded at 570 nm. Blanks and sodium azide (positive control) were used. The percentage of inhibition was calculated using Equation (5). Differences among treatments were analyzed via ANOVA (α = 0.05) in GraphPad Prism. Each experiment was performed independently three times, with three technical replicates per experiment.

[5] = system: glutathione S-transferase (GST) activity in S. zeamais; assay: GST activity assay (modified Habig) with S. zeamais protein extract; assay type: biochemical, Sitophilus zeamais; conditions: 120 mg/L
Experimental: as §3, §4
A modified version of Habig’s method was used. The protein extract (50 µL; 0.59 U/mL) was incubated with 50 µL of the compound or mixture (120 mg/L), followed by 50 µL each of CDNB and reduced glutathione (GSH). Kinetic absorbance was measured at 340 nm for 8 min. Blanks (without substrate) and quercetin (positive control) were included. Inhibition (%) was calculated using Equation (5), and treatment differences were evaluated via parametric ANOVA (α = 0.05) in GraphPad Prism 8.0.2 [42, 43]. Each experiment was performed independently three times, with three technical replicates per experiment.(5) % Inhibition=1−Am−AB/AC ×100 where Am is the absorbance of the sample, AB is the absorbance of the blank, and AC is the absorbance of the negative control.

[6] = system: AChE of S. zeamais; assay: AChE activity assay (modified Ellman) with S. zeamais protein extract; assay type: biochemical, Sitophilus zeamais; design: key to AChE Effect Inhibitor Type: C: competitive inhibitor; NC: non-competitive inhibitor; conditions: for AChE Effect Inhibitor Type: Lineweaver–Burk; for AChE Effect IC50 ± SD / Ki: S. zeamais protein extract; for Ki: read-out: AChE Effect ki ± SD (inhibitory constant); for AChE inhibition: 120 mg/L
Experimental: The compounds and mixtures evaluated in the in vitro assays were prepared in the same buffer supplemented with 0.5% (v/v) Triton X-100 (Sigma-Aldrich®, Saint Louis, MO, USA).
The supernatant was filtered, and 20 mM benzamidine was added. The extracts were stored in 5 mL aliquots at −20 °C. Preliminary assays were performed to quantify the specific activity of AChE (0.02–1.00 U/mL), GST (0.1–0.8 U/mL), and CAT (0.1–25 U/mL), and to optimize assay conditions (enzyme dilution: 1/8 to 1% v/v; substrate concentrations: 2 × km or within assay linearity).
Then, 50 µL of DTNB and 50 µL of ATChI were added. […] Inhibition percentages were calculated using Equation (5).

[7] = system: S. zeamais; design: method as in PMID 21173724, PMID 22236213; conditions: cited from earlier work
[8] = design: method as in doi:10.1016/B978-0-12-819092-0.00021-2; conditions: cited from earlier work
[9] = Sitophilus zeamais, in Homo sapiens, 24 h, read-out: Fumigant Toxicity LC50 (95% FL)
[10] = Sitophilus zeamais, in Homo sapiens, 24 h
[11] = Sitophilus zeamais, 24 h, read-out: Fumigant Toxicity LC50i (LC-95%)
[12] = Sitophilus zeamais, read-out: LC50 values, fumigant activity (Figure 3)

CC1=CC=C(C(C)C)CC1 [Compound C13, α-Terpinene]
LC50 in vapor-phase assays without physical barriers [1]: 56.2 mg/L (≈ 413 µM) | LC50 [2, 9]: 60.2 µg/mL and 442 µM | EC90 [2, 10]: 96.2 µg/mL and 706 µM

CC1=CC[C@H](C(C)C)C=C1 [Compound C14, R-(−)-α-Phellandrene]
LC50 in vapor-phase assays without physical barriers [1]: 72.7 mg/L (≈ 534 µM) | Fumigant Toxicity LC50 (95% FL) ([2]; S. zeamais adults, 24 h after exposure): 88.87 (69.70–108.27) mg L^−1 | LC50 ([2]; read-out: Fumigant Toxicity LC50 (95% FL), S. zeamais adults, 24 h after exposure): 652 µM

CC(C)=C1CC[C@H](C)CC1=O [Compound C2, S-(−)-Pulegone]
Contact Toxicity LD50i (LC-95%) [3]: 7.44 µg/Adult | Contact Toxicity LD90 (95% FL) [3]: 9.64 (9.05–10.54) µg/Adult | CAT Inhibition λ570 nm (%) [4]: 2.4% | GST Inhibition λ340 (%) [5]: 4.3% | LC50 [2, 11]: 0.97 µg/mL | LC50 [2, 9]: 0.97 µg/mL and 6.37 µM | EC90 [2, 10]: 1.68 µg/mL and 11.1 µM | AChE inhibition type (Lineweaver–Burk plots), in words [6]: competitive inhibition | AChE inhibition, times higher than the R-enantiomer (C1) [6]: 2.3 times | AChE Effect Inhibitor Type [6]: C | AChE Effect IC50 ± SD [6]: 36.60 ± 3.29 µg/mL | Ki [6]: 50.3 ± 0.74 µM

CCCCCCCCC [Compound C20, n-Nonane]
Contact Toxicity LD50 (95% FL) [3]: 21.42 µg/Adult | Contact LD50 previously reported for 7-day assays [7]: 17.62 µg/adult | LC50 [2, 9]: 109 µg/mL and 851 µM | EC90 [2, 10]: 172 µg/mL and 1.34 mM

CC1=CCC2CC1C2(C)C (stereo not drawn) [Compound C19, α-Pinene]
LC50 in vapor-phase assays without physical barriers [1]: 120 µL/L | LC50 [2, 9]: 110 µg/mL and 810 µM | EC90 [2, 10]: 179 µg/mL and 1.31 mM

C=C(C)[C@H]1CC=C(C)C(=O)C1 [Compound C3, S-(+)-Carvone]
Contact Toxicity LD50i (LC-95%) [3]: 12.68 µg/Adult | Contact Toxicity LD50 (95% FL) [3]: 12.68 (10.91–14.60) µg/Adult | Contact Toxicity LD90 (95% FL) [3]: 23.236 (20.46–27.42) µg/Adult | GST Inhibition λ340 (%) [5]: 23.0% | LC50 [2, 11]: 2.87 µg/mL | LC50 [2, 9]: 2.87 µg/mL and 19.1 µM | EC90 [2, 10]: 5.31 µg/mL and 35.4 µM | LC50 [2, 12]: 2.87 µg/mL | AChE inhibition type (Lineweaver–Burk plots), in words [6]: competitive inhibition | AChE Effect Inhibitor Type [6]: C | AChE Effect IC50 ± SD [6]: 66.27 ± 4.35 µg/mL | Ki [6]: 56.76 ± 0.18 µM

CC1=CC[C@@](O)(C(C)C)CC1 [Compound C5, R-(−)-Terpinen-4-ol]
Contact Toxicity LD50 (95% FL) [3]: 19.64 (18.42–21.45) µg/Adult | Contact Toxicity LD90 (95% FL) [3]: 24.82 (22.64–29.63) µg/Adult | Fumigant LC50 reported in 7-day exposure assays ([1]; 7-day exposure): 4.79 µg/mL | LC50 [2, 9]: 4.03 µg/mL and 26.1 µM | EC90 [2, 10]: 6.13 µg/mL and 39.8 µM | LC50 [2, 12]: 4.03 µg/mL

Cc1ccc(C(C)C)cc1O [Compound C25, Carvacrol]
Contact Toxicity LD50i (LC-95%) [3]: 8.71 µg/Adult | Contact Toxicity LD90 (95% FL) [3]: 13.45 (12.19–15.38) µg/Adult | GST Inhibition λ340 (%) [5]: 19.3% | oral LD50 [8]: 2462.23 mg/kg | AChE inhibition [6]: 46.85%

C/C=C/c1ccc(OC)cc1 [Compound C29, trans-Anethol]
Contact Toxicity LD90 (95% FL) [3]: 46.08 (41.56–52.95) µg/Adult | CAT Inhibition λ570 nm (%) [4]: 23.3% | GST Inhibition λ340 (%) [5]: ~ 17.5% and 17.5% | AChE inhibition type (Lineweaver–Burk plots), in words [6]: competitive inhibition | AChE Effect Inhibitor Type [6]: C | AChE Effect IC50 ± SD [6]: 4.24 ± 0.36 µg/mL | Ki [6]: 43.6 ± 3.46 µM | AChE potency, times more potent than isomer estragole (C11) ([6]; ratio of IC50): 6.5 times

Cc1ccc(C(C)C)cc1 [Compound C12, p-Cymene]
LC50 in vapor-phase assays without physical barriers [1]: 23.3 mg/L (≈ 174 µM) | LC50 [2, 9]: 28.7 µg/mL and 214 µM | EC90 [2, 10]: 47 µg/mL and 350 µM

C=C(C)[C@@H]1CC[C@@H](C)C[C@H]1O [Compound C7, 1R,2S,5R-Isopulegol]
Contact Toxicity LD90 (95% FL) [3]: 26.65 (25.07–28.90) µg/Adult | GST Inhibition λ340 (%) [5]: 10.6% | LC50 [2, 11]: 4.73 µg/mL | LC50 [2, 9]: 4.73 µg/mL and 30.7 µM | EC90 [2, 10]: 7.19 µg/mL and 46.6 µM | AChE inhibition type (Lineweaver–Burk plots), in words [6]: competitive inhibition | AChE Effect Inhibitor Type [6]: C | AChE Effect IC50 ± SD [6]: 18.15 ± 0.64 µg/mL | Ki [6]: 282 ± 4.14 µM

C=CCc1ccc(O)c(OC)c1 [Compound C26, Eugenol]
Contact Toxicity LD50i (LC-95%) [3]: 20.90 µg/Adult | Contact Toxicity LD50 (95% FL) [3]: 20.9 (19.22–22.65) µg/Adult | Contact Toxicity LD90 (95% FL) [3]: 30.82 (28.35–34.42) µg/Adult | CAT Inhibition λ570 nm (%) [4]: 19.9% | GST Inhibition λ340 (%) [5]: 24.3%

CC(C)=C1CC[C@@H](C)CC1=O [Compound C1, R-(+)-Pulegone]
Contact Toxicity LD50i (LC-95%) [3]: 4.85 µg/Adult | Contact Toxicity LD90 (95% FL) [3]: 7.40 (6.79–8.28) µg/Adult | CAT Inhibition λ570 nm (%) [4]: 4.3% | GST Inhibition λ340 (%) [5]: 2.4% | LD50 (i.p.) ([8]; i.p.): 73 mg/kg | LD50 (i.v.) ([8]; i.v.): 80 mg/kg | oral LD50 [8]: 810 mg/kg | LC50 [2, 11]: 0.58 µg/mL | LC50 [2, 9]: 0.58 µg/mL and 3.81 µM | EC90 [2, 10]: 0.92 µg/mL and 6.07 µM | AChE inhibition [6]: 33.52%
